Earlier results in patent US20100280071A1, “BENZIMIDAZOLES WHICH HAVE ACTIVITY AT M1 RECEPTOR AND THEIR USES IN MEDICINE” (priority 2006, published 2010).

Key:
[1] = in vivo
[2] = tested on: A10 and A9 dopamine cells; conditions: A10 versus A9 cells
c-fos expression = conditions: prefrontal cortex, nucleus accumbens, striatum; rats
[3] = tested on: unilateral 6-OH-DA lesioned rats

For `CCCCCCOc1nsnc1C1=CCCN(C)C1` [xanomeline], the conditioned avoidance [1] is listed as “inhibit”, the “psychotic symptoms such as suspiciousness, hallucinations and delusions” value (Alzheimer's patients; Alzheimer's patients) is listed as “reduce psychotic symptoms” and the side effects (Alzheimer's patients; attributed to relatively non-selective nature of the compound) is listed as “dose-limiting peripheral cholinergic side effects”. The dopamine cell firing [2] was “inhibit A10, but not A9”, the “effect on amphetamine induced locomotion” value (rats) was “reverses” and the EPS liability (monkeys) was “without EPS liability”. The “effect on amphetamine-induced motor unrest” value (monkeys) was “reverses”, the “effect on apomorphine induced climbing” value (mice) was “reverses” and the c-fos expression (c-fos expression) was “induces c-fos expression in prefrontal cortex and nucleus accumbens, but not in striatum”. The “effect on dopamine agonist driven turning” value [3] was “reverses”.
